Reference: patent US11442059B2, “Method for treating a chronic itch condition by administering small molecule MrgprX4 antagonists” (The Johns Hopkins University, priority 2017, dated 2022)
Each block holds one molecule with its values, some of them ahead of it. Non-standard residues stand in square brackets, D forms with d. *: point of attachment. Boc = CC(C)(C)OC(=O)*; OBn = c1ccc(CO*)cc1; For = O=C*

Columns and labels:
MRGPRX4 [1] = biological target: T1, MRGPRX4 (Homo sapiens, UniProt Q96LA9); experiment: Microscale thermophoresis binding assay, MRGPRX4; set-up: expressed in transfected cells; whole cells or crude membrane fraction; conditions: FIG. 24J
Procedure: (§1) Binding isotherms for MRGPRA1, MRGPRX4, and MRGRPC11 towards various ligands were determined by microscale thermophoresis with the NanoTemper monolith NT.115 instrument^27. Ligands were pre-incubated with 10 μM of the GFP-tagged receptor of interest for 5 minutes at room temperature in binding buffer (20 mM Tris and 150 mM NaCl at pH 8.8). Receptors were crudely purified as a membrane fraction from cells stably expressing the receptor^45. Haem metabolites were freshly dissolved in 0.1 M NaOH in dim light and then diluted into assay buffer. Lyophilized BAMS-22 was dissolved in binding buffer. The pH of each ligand was evaluated prior to incubation with a receptor. Samples were loaded into NT.115 Hydrophobic-Treated Capillaries from NanoTemper. Microscale thermophoretic experiments were executed using 20% LED power and 15% MST power. KDs were calculated using the law of mass action with data from three independent experiments. Binding between bilirubin and receptors was evaluated purely thermophoretically, whereas binding between BAMS-22 and MRGPRC11 was evaluated by T-Jump. Samples with dramatic deviations in initial fluorescence were excluded.

MrgprA1 [2] = biological target: T2, MrgprA1 (Mus musculus, UniProt Q91WW5); experiment: Microscale thermophoresis binding assay, MRGPRA1; conditions: FIG. 24E
T2 construct: expressed in transfected cells; whole cells or crude membrane fraction
T2 sequence (Q91WW5 1-304): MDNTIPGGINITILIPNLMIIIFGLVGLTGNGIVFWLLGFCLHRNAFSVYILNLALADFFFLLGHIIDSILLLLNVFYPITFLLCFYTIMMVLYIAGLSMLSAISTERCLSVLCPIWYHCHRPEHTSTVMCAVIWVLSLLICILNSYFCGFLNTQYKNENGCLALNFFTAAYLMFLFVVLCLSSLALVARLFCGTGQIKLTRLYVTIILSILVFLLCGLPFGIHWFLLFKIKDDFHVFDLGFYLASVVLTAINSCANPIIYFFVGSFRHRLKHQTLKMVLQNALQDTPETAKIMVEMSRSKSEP
Procedure: as §1

MrgprA1 [3] = biological target: T2, MrgprA1; experiment: Fura 2-AM calcium imaging, EC50 and IC50 determinations, MRGPRA1 HEK293 cells; format: cell-based; conditions: concentration-Ca2+ response, FIG. 24D
Procedure: (§2) Cells were imaged in calcium imaging buffer (CIB; 10 mM HEPES, 1.2 mM NaHCO3, 130 mM NaCl, 3 mM KCl, 2.5 mM CaCl2, 0.6 mM MgCl2, 20 mM glucose, and 20 mM sucrose at pH 7.4 and 290-300 mOsm). To monitor changes in intracellular [Ca^2+] ([Ca^2+]i), cells were loaded with either Fura 2-AM (HEK293 cells) or Fluo 4-AM (DRG neurons and mast cells) for 30 min in the dark at 37° C. in CIB just prior to imaging. With Fura 2-AM, emission at 510 nm was monitored from excitation at both 340 nm and 380 nm. With Fluo 4-AM, emission at 520 nm was monitored from excitation at 488 nm. Cells were identified as responding if the intracellular [Ca^2+] rose by either 50% compared to baseline or 50% compared to the [Ca^2+]i change assayed during addition of 50 mM KCl (neurons only). Damaged, detached, high-baseline, and motion-activated cells were excluded from analysis.
(§3) In initial screens, HEK293 cells stably expressing the murine G-protein alpha-subunit Gα15, a unique Gα protein that non-selectively couples a large variety of GPCRs to phospholipase C^30, were plated on poly-D-lysine-coated coverslips and transiently transfected with constructs encoding the MRGRPR of interest. 12-24 h later, cells were loaded with the Fura 2-AM. Unless otherwise specified, compounds were perfused into the imaging chamber for approximately thirty seconds after a baseline period was established. Response was then monitored at 5 s intervals for an additional 60 s.
(§4) HEK293 cells stably expressing either MRGPRA1, MRGPRX4, and MRGRPC11 were seeded in poly-D-lysine-coated 96-well plates at 10,000 cells/well. Cells were loaded with Fura 2-AM, washed twice, and maintained in CIB. Haem metabolites were freshly dissolved in DMSO in dim light and then diluted into a buffer comprised of 20 mM Tris and 150 mM NaCl at pH 8.8. Potential changes in pH were evaluated prior to each experiment. EC50 values were determined from dose-responses performed in triplicate, repeated 2-4 times. To determine potential antagonism by QWF against bilirubin, cells were treated with varying doses of QWF for 1 min in CIB prior to application of agonist.

MRGPRX4 [4] = biological target: T1, MRGPRX4; experiment: Fura 2-AM calcium imaging, EC50 determinations, MRGPRX4 HEK293 cells; format: cell-based; set-up: expressed in transfected cells; whole cells or crude membrane fraction; conditions: concentration-Ca2+ response, FIG. 24I
Procedure: as §2, §3
as §4, with “To determine potential antagonism by QWF against bilirubin, cells were treated with varying doses of QWF for 1 min in CIB prior to application of agonist.” left out

mice = experiment: Acute itch behaviour after injection (scratching bouts); format: in vivo, mouse; conditions: WT mice
129S1/SvImJ mice = experiment: SJS/TEN mouse model (daily oral gavage of causative drug); format: in vivo; conditions: mouse, in vivo
Procedure: Eight-to-ten week old male mice were orally gavaged with either causative drugs (LTG, allopurinol, oxcarbazepine) suspended in saline or saline once daily. The dosage was based on milligrams per kilogram of animal's body weight as indicated (for example, LTG 50 mg kg^−1 body weight). Skin, eyes, and mucosa, survival, body weight, physical and gross appearances (particularly on the eyes, mucosa and skins) were monitored every day.
The animals were deeply anesthetized with pentobarbital and transcardially perfused with 20 ml 0.1 M cold PBS (pH 7.4) followed with 25 ml of cold 4% paraformaldehyde (PFA). Paw skin, eyelid, spleen, lymph nodes were dissected out. postfixed in 4% PFA for more than two hours, and cryoprotected in a 20% followed by 30% sucrose solution for 24 hours each at 4° C. Tissue samples were embedded in the optimal cutting temperature (OCT) and frozen before being serially cut into 20 μm sections and placed onto slides. Hematoxylin and eosin (H&E) staining was performed using standard procedures according to the manufacturer's instruction VITROVIEW™ H&E Stain Kit). To quantify amount of apoptotic cells, terminal deoxynucleotidyl transferase dUTP nick end labeling (TUNEL) assay, a method for detecting DNA fragmentation that results from apoptotic cells by labeling the terminal end of nucleic acids, was performed by following the protocol of Apo-BrdU DNA Fragmentation Assay Kit (Biovision). To estimate the total cell number in tissue, all nuclei were stained with propidium iodide. Digital photographs were captured under confocal fluorescent microscopy at x200 magnification (Zeiss LSM 700). The number of TUNEL-positive nuclei were counted and reported as a percentage over the number of total nuclei observed in the skin's epidermis layer.

mouse Mrgpra1 = biological target: T3, mouse Mrgpra1 (Mus musculus, UniProt Q91WW5); experiment: Ca2+ imaging / EC50 determination in HEK293 cells expressing Mrgpra1; format: cell-based; conditions: Mrgprs individually expressed in HEK293 cells
T3 construct: expressed in transfected cells; host or cells: HEK293
T3 sequence (Q91WW5 1-304): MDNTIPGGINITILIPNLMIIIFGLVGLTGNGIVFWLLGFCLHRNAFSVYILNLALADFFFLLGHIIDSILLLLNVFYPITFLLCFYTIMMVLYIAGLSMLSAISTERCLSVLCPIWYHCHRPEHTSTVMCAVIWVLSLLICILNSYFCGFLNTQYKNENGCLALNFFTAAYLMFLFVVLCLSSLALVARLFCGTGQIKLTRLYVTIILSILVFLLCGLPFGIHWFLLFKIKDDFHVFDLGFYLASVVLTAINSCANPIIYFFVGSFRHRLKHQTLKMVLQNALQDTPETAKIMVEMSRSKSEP
Procedure: (§5) Lamotrigine (LTG), allopurinol, carbamazepine and oxcarbazepine (all from Sigma) were prepared fresh on the day of the experiment. These drugs were dissolved into dimethyl sulfoxide (DMSO) first, and then were diluted at least 10000× into calcium imaging buffer before use. The final concentrations of drugs for each experiment were indicated in the corresponding figure legend.
(§6) In initial experiments, HEK293 cells were plated on 100 μg/ml poly-D-lysine coated glass cover slips, and transiently transfected with vector containing Mrgprs gene, after 24-48 hours of culture, cells were loaded with Fura 2-acetomethoxy ester calcium indicator (0.5 μM, Molecular Probes) along with pluronic F-127 dispersing agent (0.1%, Molecular Probes) for 30 minutes in the dark at 37° C., then washed with calcium imaging buffer (CIB; NaCl 125 mM, KCl 3 mM, CaCl2 2.5 mM, MgCl2 0.6 mM, HEPES 10 mM, glucose 20 mM, NaHCO3 1.2 mM, sucrose 20 mM, brought to pH 7.4 with NaOH). Drugs were added to Fura 2-loaded cells and intracellular free calcium was measured using 340 nm and 380 nm excitation wavelengths with emission measured at 520 nm with a microscope based imaging system (Nikon Eclipse TE200). Changes in emission fluorescence ratios at 340/380 nm excitation were continuously monitored at 1 second intervals. Later, experiments were performed using Mrgpra1-GFP, Mrgprc11-GFP and MRGPRX4-GFP stable cell lines to confirm the findings obtained from the transiently expressing cells.
(§7) Mrgpra1 or both wild-type and mutant MRGPRX4 stably expressed HEK cells were plated overnight in 100 μl culture media on 96-well plates. […] After 1 hour of incubation at 37° C., cells were allowed to recover for 10 minutes in the dark at room temperature prior to performing intracellular calcium mobilization assay in a FLEXSTATION® multi-mode plate reader (Molecular Devices). […] Responses were determined by subtracting the minimum signal (at the basal level before adding the drug) from the maximum signal (obtained after stimulating with the drug). […]

MRGPRX4 [5] = biological target: T1, MRGPRX4; experiment: Ca2+ imaging / EC50 determination in HEK293 cells expressing MRGPRX4; format: cell-based; set-up: expressed in transfected cells; conditions: Mrgprs individually expressed in HEK293 cells
Procedure: as §5, §6, §7

[6] = biological target: human MRGPRX3 (Mas-related G-protein coupled receptor member X3) (human) (UniProt Q96LB0); experiment: cell-based or functional assay
[7] = biological target: T4, murine MRGPRA1 stably expressed in HEK293 cells (GFP-tagged, pEGFP-N1) (mouse, UniProt Q91WW5 1-304); experiment: cell-based or functional assay
T4 sequence (looked up): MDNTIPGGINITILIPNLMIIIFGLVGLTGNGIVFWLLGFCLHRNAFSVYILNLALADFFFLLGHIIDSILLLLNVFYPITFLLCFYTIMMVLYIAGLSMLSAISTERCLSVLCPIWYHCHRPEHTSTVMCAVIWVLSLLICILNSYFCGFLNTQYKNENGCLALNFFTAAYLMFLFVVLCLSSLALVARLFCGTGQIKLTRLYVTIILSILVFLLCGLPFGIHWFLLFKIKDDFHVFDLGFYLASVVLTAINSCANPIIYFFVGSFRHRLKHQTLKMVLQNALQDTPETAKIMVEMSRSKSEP

T1 sequence (Q96LA9 whole entry): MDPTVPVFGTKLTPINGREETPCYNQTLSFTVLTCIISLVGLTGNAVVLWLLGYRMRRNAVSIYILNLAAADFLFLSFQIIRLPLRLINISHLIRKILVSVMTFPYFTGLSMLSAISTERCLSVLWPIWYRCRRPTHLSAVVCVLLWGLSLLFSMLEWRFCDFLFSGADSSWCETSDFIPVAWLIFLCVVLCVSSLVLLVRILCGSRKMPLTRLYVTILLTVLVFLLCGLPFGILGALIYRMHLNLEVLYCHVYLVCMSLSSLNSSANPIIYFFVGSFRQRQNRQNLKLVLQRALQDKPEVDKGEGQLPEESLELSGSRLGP
human MRGPRX3 (Mas-related G-protein coupled receptor member X3) (human), sequence (Q96LB0 whole entry): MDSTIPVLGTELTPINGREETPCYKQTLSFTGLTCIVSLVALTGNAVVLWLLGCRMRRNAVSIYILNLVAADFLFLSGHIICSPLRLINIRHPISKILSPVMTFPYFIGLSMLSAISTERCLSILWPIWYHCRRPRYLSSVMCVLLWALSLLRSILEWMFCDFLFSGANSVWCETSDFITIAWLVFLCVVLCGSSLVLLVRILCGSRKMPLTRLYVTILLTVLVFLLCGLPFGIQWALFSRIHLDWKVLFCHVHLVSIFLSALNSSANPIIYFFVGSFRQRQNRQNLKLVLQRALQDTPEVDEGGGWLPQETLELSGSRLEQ

eye manifestation (129S1/SvImJ mice): can also induce eye manifestation
activation of mouse Mrgpra1 (Ca2+ imaging) (mouse Mrgpra1): specifically activated
activation of human MRGPRX4 (Ca2+ imaging) (MRGPRX4 [5]): specifically activated
Molecule: NC(=O)N1c2ccccc2CC(=O)c2ccccc21 [oxcarbazepine]

percentage of primary human keratinocytes that responded to hBD3 (Ca^2+), after siRNA knock-down of MRGPRX3 [6]: < 20%
percentage of primary human keratinocytes that responded to hBD3 (Ca^2+), before MRGPRX3 knock-down [6]: > 80%
Molecule: synthetic human Beta-defensin 3 (hBD3) (from UniProt P81534 23-67) (peptide)

The remaining lines, values behind:

Molecule: C=CC1=C(C)c2cc3[n-]c(cc4nc(cc5[n-]c(cc1n2)c(C)c5C=C)C(C)=C4CCC(=O)O)c(CCC(=O)O)c3C.[Cl-].[Fe+3] [haemin]
binding to MRGPRX4 (MRGPRX4 [1]): did not bind
binding to MRGPRA1 (MrgprA1 [2]): did not bind
activation of MRGPRA1-expressing cells (calcium) (MrgprA1 [3]): failed to activate
activation of MRGPRX4-expressing cells (calcium) (MRGPRX4 [4]): no effect
scratching / itch elicited by injection (mice): did not induce scratching

Molecule: Boc-Gln-[dW](For)-Phe-OBn [BOC-GLN-D-(FORMYL)TRP-PHE-BENZYLESTER (QWF)]
IC50 for inhibition of bilirubin-induced Ca^2+ signal in MRGPRA1-expressing HEK cells (200 µM bilirubin) [7]: 2900 nM
